We go through 17 compounds from patent US9445594B2, “Molecules having certain pesticidal utilities, intermediates, compositions, and processes, related thereto” (priority 2014, dated 2016).

Type in all cases: in vivo
The test system of data set [1] is Green Peach Aphid (Myzus persicae, MYZUPE) ("GPA"). In words: Bioassays on GPA, foliar spray of infested cabbage seedlings. The settings on record: 72 h, 200 ppm spray on cabbage seedlings, graded after three days, Abbott corrected % control, read-out: GPA % Control (or Mortality) rating. As to the method:
Certain molecules disclosed in this document were tested against GPA using procedures described in the following example. In the reporting of the results, the “GPA Rating Table” was used (See Table Section).
Cabbage seedlings grown in 3-inch pots, with 2-3 small (3-5 cm) true leaves, were used as test substrate. The seedlings were infested with 20-50 GPA (wingless adult and nymph stages) one day prior to chemical application. Four pots with individual seedlings were used for each treatment. Test compounds (2 mg) were dissolved in 2 mL of acetone/methanol (1:1) solvent, forming stock solutions of 1000 ppm test compound. The stock solutions were diluted 5× with 0.025% Tween 20 in water to obtain the solution at 200 ppm test compound. A hand-held aspirator-type sprayer was used for spraying a solution to both sides of […] leaves until runoff. Reference plants (solvent check) were sprayed with the diluent only containing 20% by volume of acetone/methanol (1:1) solvent. Treated plants were held in a holding room for three days at approximately 25° C. and ambient relative humidity (RH) prior to grading. Evaluation was conducted by counting the number of live aphids per plant under a microscope. Percent Control was measured by using Abbott's correction formula (W. S. Abbott, “A Method of Computing the Effectiveness of an Insecticide” J. Econ. Entomol. 18 (1925), pp. 265-267) as follows. Corrected % Control=100*(X−Y)/X • where • X=No. of live aphids on solvent check plants and • Y=No. of live aphids on treated plants

The subject of data set [2] is Beet Armyworm (Spodoptera exigua, LAPHEG) ("BAW"). Briefly: Bioassays on BAW, 128-well diet tray assay. The settings on record: 168 h, second instar larvae, 50 μg/cm^2 on artificial diet, 25° C., five to seven days, average of eight wells, read-out: BAW % Control (or Mortality) rating. In outline: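 One to five second-instar larvae were placed per well on artificial diet surface-treated with 50 μg/cm^2 compound from 90:10 acetone-water, dried before infestation. Trays were held at 25 °C, 14:10 light-dark, for five to seven days. Percent mortality was averaged over eight wells.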

Data set [3] relates to Cabbage Looper (Trichoplusia ni, TRIPNI) ("CL"). In words: Bioassays on CL, 128-well diet tray assay. The note with it: 168 h, second instar larvae, 50 μg/cm^2 on artificial diet, 25° C., five to seven days, average of eight wells, read-out: CL % Control (or Mortality) rating. In outline: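 Second-instar larvae (one to five per well) on artificial diet surface-treated with 50 μg/cm^2 compound in 90:10 acetone-water, eight wells per treatment. Held at 25° C., 14:10 light-dark for five to seven days. Percent mortality scored per well and averaged over the eight wells.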

Data set [4] concerns Yellow Fever Mosquito (Aedes aegypti, AEDSAE) ("YFM"). In words: Bioassays on YFM, 96-well plate larval assay. The settings on record: about 1 day-old larvae, from 4000 ppm DMSO master plate diluted, room temperature, scored after 3 days. In outline: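 Compounds from 4000 ppm DMSO master plates, diluted in 90:10 water:acetone, dispensed into 96-well plates, six replicates. About 1-day-old larvae added in liver-powder water. Wells covered, held 3 days at room temperature, then scored for mortality.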

As for `CCCc1ccccc1NC(=O)Nc1ccc(-c2ncn(-c3ccc(OC(F)(F)F)cc3)n2)cc1` [F37, 1-(2-propylphenyl)-3-(4-(1-(4-(trifluoromethoxy)phenyl)-1H-1,2,4-triazol-3-yl)phenyl)urea], the mortality at 200 ppm in data set [1] fell in the range of 0 to 80%. The results for the mortality at 50 µg/cm2 in data set [2] and in data set [3] were 0 to 50% and 50 to 100%, respectively. For the same compound, in data set [4], the “YFM % Control (or Mortality) rating” value is reported as “B (More than 0 - Less than 80)”.
For `CC(C)(C)c1ccccc1NC(=O)Nc1ccc(-c2ncn(-c3ccc(OC(F)(F)F)cc3)n2)cc1` [F38, 1-(2-(Tert-butyl)phenyl)-3-(4-(1-(4-(trifluoromethoxy)phenyl)-1H-1,2,4-triazol-3-yl)phenyl)urea] the same measures were 0%, 0 to 50%, 50 to 100% and “D (No activity noticed in this bioassay)”.
For `CCc1ccccc1NC(=O)Nc1ccc(-c2ncn(-c3ccc(OC(F)(F)F)cc3)n2)cc1` [F46, 1-(2-Ethylphenyl)-3-(4-(1-(4-(trifluoromethoxy)phenyl)-1H-1,2,4-triazol-3-yl)phenyl)urea] the same measures were 0 to 80%, 50 to 100%, 50 to 100% and “B (More than 0 - Less than 80)”.
Regarding `CSc1ccccc1-c1ccccc1NC(=O)Nc1ccc(-c2ncn(-c3ccc(OC(F)(F)F)cc3)n2)cc1` [F60, 1-(2′-(Methylthio)-[1,1′-biphenyl]-2-yl)-3-(4-(1-(4-(trifluoromethoxy)phenyl)-1H-1,2,4-triazol-3-yl)phenyl)urea], the mortality at 200 ppm in data set [1] lay within 0 to 80%. Moreover, the mortality at 50 µg/cm2 in data set [2] and in data set [3] was 50 to 100% in each case. In addition, the “YFM % Control (or Mortality) rating” value in data set [4] was “A (80-100)”.
With `CC(C)c1ccccc1-c1ccccc1NC(=O)Nc1ccc(-c2ncn(-c3ccc(OC(F)(F)F)cc3)n2)cc1` [F63, 1-(2′-Isopropyl-[1,1′-biphenyl]-2-yl)-3-(4-(1-(4-(trifluoromethoxy)phenyl)-1H-1,2,4-triazol-3-yl)phenyl)urea], the mortality at 200 ppm in data set [1] lay within 0 to 80%. In addition, the mortality at 50 µg/cm2 in data set [2] and in data set [3] was 50 to 100% in each case. Further, the “YFM % Control (or Mortality) rating” value in data set [4] is listed as “D (No activity noticed in this bioassay)”.
Regarding `O=C(Nc1ccc(-c2ncn(-c3ccc(OC(F)(F)F)cc3)n2)cc1)Nc1ncccc1-c1cccnc1` [F66, 1-([3,3′-Bipyridin]-2-yl)-3-(4-(1-(4-(trifluoromethoxy)phenyl)-1H-1,2,4-triazol-3-yl)phenyl)urea], in data set [1], the mortality at 200 ppm is 0 to 80%. Moreover, the mortality at 50 µg/cm2 in data set [2] and in data set [3] was 50 to 100% throughout. In addition, in data set [4], the “YFM % Control (or Mortality) rating” value is reported as “D (No activity noticed in this bioassay)”.
On to `O=C(Nc1ccc(-c2ncn(-c3ccc(OC(F)(F)C(F)(F)F)cc3)n2)cc1)Nc1ccccc1-c1ccccc1` [F68, 1-([1,1′-biphenyl]-2-yl)-3-(4-(1-(4-(perfluoroethoxy)phenyl)-1H-1,2,4-triazol-3-yl)phenyl)urea], for which, in data set [1], the mortality at 200 ppm is 0 to 80%. Besides, the mortality at 50 µg/cm2 in data set [2] and in data set [3] was 50 to 100% throughout. Also, in data set [4], the “YFM % Control (or Mortality) rating” value is listed as “A (80-100)”.
`O=C(Nc1ccc(-c2ncn(-c3ccc(OC(F)(F)F)cc3)n2)cc1)Nc1ccccc1N1CCOCC1` [F69, 1-(2-Morpholinophenyl)-3-(4-(1-(4-(trifluoromethoxy)phenyl)-1H-1,2,4-triazol-3-yl)phenyl)urea]: the mortality at 200 ppm in data set [1] was found to be 0%. Besides, the mortality at 50 µg/cm2 in data set [2] and in data set [3] was 50 to 100% in each case. Besides, the “YFM % Control (or Mortality) rating” value in data set [4] was “A (80-100)”.
As for `Cc1ccccc1-c1ccccc1NC(=O)NCCCc1ccc(-c2ncn(-c3ccc(OC(F)(F)F)cc3)n2)cc1` [FA1, 1-(2′-Methyl-[1,1′-biphenyl]-2-yl)-3-(3-(4-(1-(4-(trifluoromethoxy)phenyl)-1H-1,2,4-triazol-3-yl)phenyl)propyl)urea], the mortality at 200 ppm in data set [1] is 0%. For the same compound, the mortality at 50 µg/cm2 in data set [2] was 0%; in data set [3], 50 to 100%. The “YFM % Control (or Mortality) rating” value in data set [4] is reported as “A (80-100)”.
In the case of `Cc1ccccc1-c1cccc(NC(=O)NCCCc2ccc(-c3ncn(-c4ccc(OC(F)(F)F)cc4)n3)cc2)c1` [FA2, 1-(2′-Methyl-[1,1′-biphenyl]-3-yl)-3-(3-(4-(1-(4-(trifluoromethoxy)phenyl)-1H-1,2,4-triazol-3-yl)phenyl)propyl)urea], the mortality at 200 ppm in data set [1] stood at 0%. In addition, the mortality at 50 µg/cm2 in data set [2] and in data set [3] was 0% in each case. The “YFM % Control (or Mortality) rating” value in data set [4] is “D (No activity noticed in this bioassay)”.
Consider `Cc1cc(C)cc(NC(=O)NCCCc2ccc(-c3ncn(-c4ccc(OC(F)(F)F)cc4)n3)cc2)c1` [P1, 1-(3,5-Dimethylphenyl)-3-(3-(4-(1-(4-(trifluoromethoxy)phenyl)-1H-1,2,4-triazol-3-yl)phenyl)propyl)urea], for which, in data set [1], the mortality at 200 ppm came to 0%. The mortality at 50 µg/cm2 in data set [2] and in data set [3] was 0% each time. Besides, the “YFM % Control (or Mortality) rating” value in data set [4] was “D (No activity noticed in this bioassay)”.
On to `CC(C)c1cccc(NC(=O)NCCCc2ccc(-c3ncn(-c4ccc(OC(F)(F)F)cc4)n3)cc2)c1` [P2, 1-(3-Isopropylphenyl)-3-(3-(4-(1-(4-(trifluoromethoxy)phenyl)-1H-1,2,4-triazol-3-yl)phenyl)propyl)urea], for which the mortality at 200 ppm in data set [1] amounted to 0%. Further, the results for the mortality at 50 µg/cm2 in data set [2] and in data set [3] were 0 to 50% and 0%, respectively. Besides, the “YFM % Control (or Mortality) rating” value in data set [4] was “D (No activity noticed in this bioassay)”.
In the case of `COc1ccc(NC(=O)NCCCc2ccc(-c3ncn(-c4ccc(OC(F)(F)F)cc4)n3)cc2)c(C)c1` [P3, 1-(4-Methoxy-2-methylphenyl)-3-(3-(4-(1-(4-(trifluoromethoxy)phenyl)-1H-1,2,4-triazol-3-yl)phenyl)propyl)urea], in data set [1], the mortality at 200 ppm was determined as 0%. Also, the mortality at 50 µg/cm2 in data set [2] and in data set [3] was 0% in each case. Moreover, the “YFM % Control (or Mortality) rating” value in data set [4] is reported as “D (No activity noticed in this bioassay)”.
For `CCc1cccc(C)c1NC(=O)NCCCc1ccc(-c2ncn(-c3ccc(OC(F)(F)F)cc3)n2)cc1` [P5, 1-(2-Ethyl-6-methylphenyl)-3-(3-(4-(1-(4-(trifluoromethoxy)phenyl)-1H-1,2,4-triazol-3-yl)phenyl)propyl)urea], in data set [1], the mortality at 200 ppm worked out at 0%. For the same compound, the mortality at 50 µg/cm2 in data set [2] and in data set [3] was 0% throughout. For the same compound, the “YFM % Control (or Mortality) rating” value in data set [4] is “D (No activity noticed in this bioassay)”.
As to `Cc1ccc(C(C)C)c(NC(=O)NCCCc2ccc(-c3ncn(-c4ccc(OC(F)(F)F)cc4)n3)cc2)c1` [P6, 1-(2-Isopropyl-5-methylphenyl)-3-(3-(4-(1-(4-(trifluoromethoxy)phenyl)-1H-1,2,4-triazol-3-yl)phenyl)propyl)urea], the mortality at 200 ppm in data set [1] turned out to be 0%. In addition, the mortality at 50 µg/cm2 in data set [2] and in data set [3] was 50 to 100% in each case. For the same compound, in data set [4], the “YFM % Control (or Mortality) rating” value is “A (80-100)”.
Turning to `O=C(NCCCc1ccc(-c2ncn(-c3ccc(OC(F)(F)F)cc3)n2)cc1)Nc1cccc(-c2ccccc2)c1` [P7, 1-([1,1′-biphenyl]-3-yl)-3-(3-(4-(1-(4-(trifluoromethoxy)phenyl)-1H-1,2,4-triazol-3-yl)phenyl)propyl)urea], in data set [1], the mortality at 200 ppm is 0%. Further, the mortality at 50 µg/cm2 in data set [2] and in data set [3] was 0% in each case. In addition, the “YFM % Control (or Mortality) rating” value in data set [4] is recorded as “D (No activity noticed in this bioassay)”.
On to `O=C(NCCCc1ccc(-c2ncn(-c3ccc(OC(F)(F)F)cc3)n2)cc1)Nc1ccccc1-c1ccccc1` [P9, 1-([1,1′-Biphenyl]-2-yl)-3-(3-(4-(1-(4-(trifluoromethoxy)phenyl)-1H-1,2,4-triazol-3-yl)phenyl)propyl)urea], for which the mortality at 200 ppm in data set [1] stood at 0%. In addition, the mortality at 50 µg/cm2 in data set [2] is 0%; in data set [3], 50 to 100%. The “YFM % Control (or Mortality) rating” value in data set [4] was “B (More than 0 - Less than 80)”.

By mortality is commonly meant the share of the test organisms that died.
